This is an account of results in US6900198B2, “Synthetic catalytic free radical scavengers useful as antioxidants for prevention and therapy of disease” (Eukarion, Inc., priority 1995, dated 2005).

For series [1], the system named is Human dermal fibroblasts (HF cells). In words: Protection against glucose and glucose oxidase toxicity in human fibroblasts (XTT). The class given is cell-based. Conditions: glucose oxidase 0.019 units/ml. The protocol:
Cytotoxicity studies were performed as described under Experimental procedures. Absorbance values, corrected by subtracting the blank signal of 0.17 OD units, are the means±sd of triplicate samples. Control cells (open circle) received no glucose oxidase. Catalase-treated (solid circle) cells received glucose oxidase (0.019) units/ml) as well as bovine liver catalase (290 units/ml). Other samples received the same dose of glucose oxidase and the indicated concentrations of salen manganese complex.
(§1) Human dermal fibroblasts (HF cells) were obtained from the American type tissue Culture Collection at passage 1 and cultured and propagated in a medium (HF medium) consisting of Dulbecco's Modified Eagle's Medium with 4.5 g/l D-glucose, 10% calf serum 4 mM glutamine, 50 units/ml penicillin, and 50 μg/ml streptomycin in a 37° C. humidified incubator equilibrated with 5% CO2. Cells were used at passages 5 or 6 for experiments. […] After 2 hr., the absorbance at 490 nm was measured in a BioRad (Richmond, Calif.) Model 3550 plate-reader, using a reference wavelength of 655 nm. […] Absorbance measurements for blank wells, containing HF medium and XTT reagent but no cells, were also determined. […] Fresh HF medium was then added and cell viability assessed using the XTT reagent as described above. […]
A general note: Formazan colour is commonly taken as a measure of viable cells.

The test system is the same in series [2]. Put plainly: Protection against t-butyl hydroperoxide toxicity in human fibroblasts (XTT). The series is classed as cell-based. As to conditions: 80 μM with 0.5 mM t-BHP. The protocol:
as §1, with “experiments. For cell protection assays, HF cells were seeded at a density of about 15,000 cells per cm2 onto 96-well culture plates and allowed to grow to confluence.” for “experiments.”
Cell protection assays were performed as described under Experimental Procedures with salen-manganese complexes administered at the indicated concentrations and t-BHP at 0.5 mM. Cell viability was assessed using the XTT reagent as described and is expressed as the absorbance at 490 nm uncorrected for blank. […]

The nature of series [3]: Peroxidase activity, H2O2-dependent oxidation of ABTS. The class given is biochemical. As to conditions: for peroxidase activity (relative, in words): 10 μM salen manganese complex, 0.2 mM H2O2. As for the experimental part:
(§2) Peroxidase activity was assayed by monitoring the hydrogen peroxide-dependent oxidation of 2,2′-azino-bis(3-ethylbenzthiazoline-6) sulfonic acid (ABTS) spectrophotometrically. Standard assay mixtures consisted of 50 mM sodium phosphate, pH 8.1, 0.9% sodium chloride, 0.5 mM ABTS, and H2O2 and salen manganese complex as indicated. Where indicated, 50 mM sodium phosphate buffers of pH 6.0 or pH 7.1 were substituted. Assays were conducted at 27±0.2° C. ABTS oxidation was monitored at 740 or 500 nm to eliminate interference by the salen manganese complexes, many of which absorb in the vicinity of the λmax of oxidized ABTS, and to avoid absorbance values that exceeded the linear range of the spectrophotometer. The amount of oxidized ABTS was estimated using an Δε740 of 20,300 M^−1cm^−1 or an Δε500 of 3400 M^−1cm^−1 calculated based upon the published molar extinction coefficient oat 405 nm (36,800).
Compounds were assayed for SOD as described under Experimental procedures, using cytochrome C as acceptor. The concentration of each compound showing half-maximal activity in this assay is presented. Catalase and peroxidase activities were conducted as described under Experimental Procedures, with 10 μM salen manganese complex. The H2O2 concentration was 10 mM and 0.2 mM in the catalase and peroxidase assays, respectively. Where denoted, “nd” means that the assay was not performed on this compound.
Catalase and peroxidase activities were assayed as described in Example 2. Catalase assays contained 10 μM salen-manganese complex and 10 mM hydrogen peroxide. Peroxidase assays contained 10 μM salen-manganese complex and 0.2 mM hydrogen peroxide. Glucose-glucose oxidase toxicity assays were performed using human dermal fibroblasts as described in Example 2.

Series [4] is described as follows: Catalase activity, polarographic oxygen electrode. The class given is biochemical. As to conditions: 10 μM salen manganese complex, 10 mM H2O2. The protocol: Catalase activity was assayed by monitoring the conversion of H2O2 to oxygen using a Clark-type polarographic oxygen electrode. The apparatus consisted of a Mini Clark Style electrode, a 600 μl Oxygen Uptake Chamber, and a Chemical Microsensor system, all obtained from Diamond General Corporation (Ann Arbor, Mich.). The electrode was calibrated by immersion in nitrogen- or air-equilibrated buffers using a Dual Chamber Calibration Cell (Diamond General, Corp.). Catalase reaction mixtures consisted of 50 mM sodium phosphate, pH 8.1,0.9% sodium chloride, and salen manganese complex and H2O2 at the indicated concentrations. The temperature of the water-jacketed reaction chamber, as well as the calibration buffers, was maintained at 25±0.1° C. Data were collected at 1 sec intervals and stored on a MacIntosh II computer using data acquisition hardware and software by Strawberry Tree, Inc. (Sunnyvale, Calif.). Dissolved oxygen concentrations were calculated as described previously (Del Rio et al. (1977) Anal. Biochem. 80: 409) based on a value of 2.5×10^−4 M oxygen for air-saturated buffer at 25° C. Linearity of the dissolved oxygen measurements within the experimental range was continued by determining the amount of oxygen generated from known quantities of H2O2 during exhaustive treatment with bovine liver catalase. Stock solutions of H2O2 were prepared by diluting a commercial 30% H2O2 solution in water and the H2O2 concentrations in these stocks were determined by absorbance at 240 nm, using a molar extinction coefficient of 44 (Stadtman, E R. et al. (1990) Proc. Natl. Acad. Sci. USA 87: 384). […] In the absence of salen manganese complex, H2O2 alone typically produced an early, relatively slow increase in signal. The slope of this increased signal was not proportional to H2O2 concentration (for example in one experiment, 1 and 10 Mm H2O2 yielded apparent rates of 12 and 14 μM oxygen per min, respectively) and may be due to an electrode artifact. […] Where presented, initial rates were calculated by determining the slope of the linear portion of time dependent plots of oxygen generation, usually comprising the first five seconds of the reaction. Unless otherwise indicated, these were corrected by subtracting the rate obtained with H2O2 alone. Where presented, endpoint oxygen generated was calculated from time-dependent plots, such as those shown in FIG. 14, as the difference between the baseline oxygen concentration immediately prior to-substrate addition and the maximal oxygen concentration achieved during the course of the reaction. All reactions subjected to these calculations were run for a sufficient time to ensure that oxygen generation had ceased.
Compounds were assayed for SOD as described under Experimental procedures, using cytochrome C as acceptor. […]

In series [5] the test system is Hippocampal slices. Put plainly: Anoxia in hippocampal slices, EPSP recovery. The series is classed as cell-based, Sprague-Dawley rats. As to conditions: C7 50 μM. The source says: Anoxia in hippocampal slices. […] A glass recording micropipet was positioned in CA1 stratum radiatum to record excitatory postsynaptic potential (EPSPs) generated by electrical stimulation of the Schaffer-commissural pathway by a bipolar stimulation electrode at a frequency of 0.033 Hz. During anoxic episodes, the oxygen supply was replaced with 100% N2 gas. N2 was supplied for 90 seconds following electrical silence after which O2 was reintroduced. Recovery of EPSPs (both slope and amplitude) was recorded for 50 minutes, at which time the final viability of the slices was determined, with viability being defined as the ability of the slice to generate a 3 mV EPSP.

The nature of series [6]: Peroxidase activity toward t-BHP, ABTS oxidation. The class given is biochemical. As to conditions: 1 mM t-BHP versus same concentration of H2O2. The protocol:
as §2
(In comparison, horseradish peroxidase utilized t-BHP with an ABTS oxidation rate that was about 5.4% of the rate with H2O2).

As to `CC(=O)[O][Mn]1[O]c2ccccc2C=NCCN=Cc2ccccc2[O]1` [Compound C31], the “protection against glucose and glucose oxidase (overall, in words)” value in series [1] was “about equally as effective as C7”. Moreover, in series [2], the “reduced viability at 80 μM relative to 40 μM together with t-BHP” value was “possible synergistic toxicity with t-BHP”.
Take `COc1cccc2c1[O][Mn]([O]C(C)=O)[O]c1c(cccc1OC)C=NCCN=C2` [Compound C32]: the “protection against glucose and glucose oxidase (overall, in words)” value in series [1] is “more protective than C43”. In addition, the “peroxidase activity (relative, in words)” value in series [3] is given as “fastest peroxidases”. In series [4], the “catalase activity, initial rate (relative, in words)” value is on record as “about twice as fast as C7”; the “catalase endpoint: total oxygen generated / turnovers completed before the reaction ceased (relative, in words)” value is “almost twice the amount of oxygen as C7”; the “catalase turnovers before the reaction ceased” value was “about 16 turnovers”.
Turning to `COc1cccc2c1[O][Mn]([O]C(C)=O)[O]c1c(cccc1OC)C=NCCCN=C2` [Compound C51], in series [3], the “peroxidase activity (relative, in words)” value is “reduced catalase and peroxidase activities”. In series [4], the “catalase activity, initial rate (relative, in words)” value is “reduced catalase and peroxidase activities”.
Consider “Purified bovine SOD: purified bovine superoxide dismutase”, for which the “protection against anoxia-induced decrease in synaptic response in CA1 (EPSP slope and amplitude)” value in series [5] is listed as “no protection”.
Turning to horseradish peroxidase, the “ABTS oxidation rate with t-BHP as percent of the rate with H2O2” value in series [6] is listed as “about 5.4%”.

B1: bovine liver catalase: bovine liver catalase enzyme used as reference (protein, UniProt P00432 2-527, looked up)
Catalase: ADNRDPASDQMKHWKEQRAAQKPDVLTTGGGNPVGDKLNSLTVGPRGPLLVQDVVFTDEMAHFDRERIPERVVHAKGAGAFGYFEVTHDITRYSKAKVFEHIGKRTPIAVRFSTVAGESGSADTVRDPRGFAVKFYTEDGNWDLVGNNTPIFFIRDALLFPSFIHSQKRNPQTHLKDPDMVWDFWSLRPESLHQVSFLFSDRGIPDGHRHMNGYGSHTFKLVNANGEAVYCKFHYKTDQGIKNLSVEDAARLAHEDPDYGLRDLFNAIATGNYPSWTLYIQVMTFSEAEIFPFNPFDLTKVWPHGDYPLIPVGKLVLNRNPVNYFAEVEQLAFDPSNMPPGIEPSPDKMLQGRLFAYPDTHRHRLGPNYLQIPVNCPYRARVANYQRDGPMCMMDNQGGAPNYYPNSFSAPEHQPSALEHRTHFSGDVQRFNSANDDNVTQVRTFYLKVLNEEQRKRLCENIAGHLKDAQLFIQKKAVKNFSDVHPEYGSRIQALLDKYNEEKPKNAVHTYVQHGSHLSAREKANL
As to B1, the “reduction of the initial rate of ABTS oxidation by C7” value in series [3] (29 units/ml bovine liver catalase added, 10 mM H2O2) came out at 55%.
